{"source": "patent US20060110401A1", "about": "“Mixture of peptides from c and ns3 proteins of the hepatitis c virus and applications thereof” (priority 2002, published 2006)", "key": {"HLA-DR4 (DRB1*0401)": {"molecular_target": "T1, HLA-DR4 (DRB1*0401) (Homo sapiens, UniProt P01903+P01911, A100K/A169T/F76Y/I96L/K127E/L162R/M171V/N62H/P40V/Q125Y/R42H/S133A/S149N/S66Y/V115G/V209L/W38E)", "T1 construct": "endogenous in cells; host or cells: homozygous EBV-transformed human B lymphocyte lines; immunopurified with antibody L243", "assay": "biochemical", "assay_type": "binding"}, "HLA-DR13 (DRB1*1301)": {"molecular_target": "HLA-DR13 (DRB1*1301) (Homo sapiens, UniProt P01903+P01911, A100E/A169T/K41T/L162R/M171V/P40S/Q125H/Q178H/Q39Y/Q99D/R42S/S66N/T262R/W38E/Y61H)", "assay": "biochemical", "assay_type": "binding"}, "HLA-DR3 (DRB1*0301)": {"molecular_target": "T2, HLA-DR3 (DRB1*0301) (Homo sapiens, UniProt P01903+P01911, A100K/A102G/A103R/A169T/F55Y/I96L/K41T/L162R/M171V/P40S/Q125H/Q178H/Q39Y/R42S/S66N/T106N/T262R/W38E/Y61H)", "T2 construct": "endogenous in cells; host or cells: homozygous EBV-transformed human B lymphocyte lines; immunopurified with antibody L243", "assay": "biochemical", "assay_type": "binding", "settings": "tracer MT 2-16, read-out: IC50, binding to HLA-DR3"}, "HLA-DR11 (DRB1*1101)": {"molecular_target": "HLA-DR11 (DRB1*1101) (Homo sapiens, UniProt P01903+P01911, A100R/A169T/A87E/I96F/K41T/L162R/M171V/P40S/Q125H/Q178H/Q39Y/Q99D/R42S/S66Y/T262R/V115G/W38E)", "sequence (P01903 26-254 limits assumed, other chains not shown)": "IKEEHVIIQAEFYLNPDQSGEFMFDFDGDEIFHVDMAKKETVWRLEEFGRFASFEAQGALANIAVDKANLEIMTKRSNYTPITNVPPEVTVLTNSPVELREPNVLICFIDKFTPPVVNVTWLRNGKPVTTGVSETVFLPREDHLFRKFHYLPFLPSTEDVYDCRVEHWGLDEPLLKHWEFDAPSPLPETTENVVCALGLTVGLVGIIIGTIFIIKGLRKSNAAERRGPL", "assay": "biochemical", "assay_type": "binding"}, "HLA-DR1 (DRB1*0101)": {"molecular_target": "T3, HLA-DR1 (DRB1*0101) (Homo sapiens, UniProt P01903+P01911, A100R/D57E/F55L/F60I/F76Y/I96L/L162R/M171V/P40L/Q125E/R42F/V115G/Y59C)", "T3 construct": "endogenous in cells; host or cells: homozygous EBV-transformed human B lymphocyte lines; immunopurified with antibody L243", "assay": "biochemical", "assay_type": "binding", "settings": "DRB1*0101"}, "HLA-DRB5 (DRB5*0101)": {"molecular_target": "T4, HLA-DRB5 (DRB5*0101) (Homo sapiens, UniProt P01903+Q30154)", "T4 construct": "endogenous in cells; host or cells: homozygous EBV-transformed human B lymphocyte lines; immunopurified with antibody L243", "assay": "biochemical", "assay_type": "binding", "settings": "tracer HA 306-318, read-out: IC50, binding to HLA-DRB5"}, "HLA-DR15 (DRB1*1501)": {"molecular_target": "T5, HLA-DR15 (DRB1*1501) (Homo sapiens, UniProt P01903+P01911)", "T5 construct": "endogenous in cells; host or cells: homozygous EBV-transformed human B lymphocyte lines; immunopurified with antibody L243", "assay": "biochemical", "assay_type": "binding"}, "HLA-DRB4 (DRB4*0101)": {"molecular_target": "T6, HLA-DRB4 (DRB4*0101) (Homo sapiens, UniProt P01903+P13762, G164S)", "T6 construct": "endogenous in cells; host or cells: homozygous EBV-transformed human B lymphocyte lines; immunopurified with antibody L243", "assay": "biochemical", "assay_type": "binding", "settings": "tracer E2/E168, read-out: IC50, binding to HLA-DRB4"}, "DR15": {"system": "DR15", "assay": "DR15"}, "DRB3": {"system": "DRB3", "assay": "DRB3"}, "DR11": {"system": "DR11", "assay": "DR11", "source_text": "(§1) Table printed on a drawing sheet, Figure 2\nWhere the first naming reader finds the target: head: DR11"}, "DR4": {"system": "DR4", "assay": "DR4"}, "HLA-DR7 (DRB1*0701)": {"molecular_target": "HLA-DR7 (DRB1*0701) (Homo sapiens, UniProt P01903+P01911, A100R/A102G/A103Q/D57E/D86V/E43K/F76Y/K127E/L162R/M171V/P40G/Q125H/Q99D/R33Q/R42Y/R54Q/S133A/S66F/T210M/V115G/Y107V/Y59L/Y89S)", "assay": "biochemical", "assay_type": "binding", "settings": "read-out: binds with good affinity to DR7"}, "DR7": {"system": "DR7", "assay": "DR7"}, "DR1": {"system": "DR1", "assay": "DR1"}, "DR13": {"system": "DR13", "assay": "DR13", "source_text": "as §1\nWhere the first naming reader finds the target: head: DR13"}, "DR3": {"system": "DR3", "assay": "DR3", "source_text": "as §1\nWhere the first naming reader finds the target: head: DR3"}, "DRB4": {"system": "DRB4", "assay": "DRB4", "source_text": "as §1\nWhere the first naming reader finds the target: head: DRB4"}, "DP401": {"system": "DP401", "assay": "DP401"}, "DP402": {"system": "DP402", "assay": "DP402"}, "[1]": {"settings": "tracer HA 306-318, read-out: IC50, binding to HLA-DR4"}, "[2]": {"settings": "tracer B1 21-36, read-out: IC50, binding to HLA-DR13"}, "[3]": {"settings": "tracer HA 306-318, read-out: IC50, binding to HLA-DR11"}}, "note": "Read-outs that look alike come from different tables or passages of the source. Residues, ends and D or L forms follow the SMILES beside them."}
{"smiles": "CC[C@H](C)[C@H](NC(=O)[C@H](CS)NC(=O)CN)C(=O)N[C@H](C(=O)N[C@H](C(=O)N[C@@H](CO)C(=O)N[C@@H](CC(C)C)C(=O)N[C@H](C(=O)NCC(=O)N[C@@H](CCCNC(=N)N)C(=O)N[C@@H](CC(=O)O)C(=O)N[C@@H](CCCCN)C(=O)N[C@@H](CC(N)=O)C(=O)N[C@@H](CCC(N)=O)C(=O)N[C@H](C(=O)O)C(C)C)[C@@H](C)O)[C@@H](C)O)[C@@H](C)O", "note": "[9N 1041-1055] (H-GCITTSLTGRDKNQV-OH; N-terminus and C-terminus assumed)", "values": [{"measurement": "IC50", "setting": "HLA-DR4 (DRB1*0401); [1]", "result": 2900, "unit": "nM"}, {"measurement": "IC50", "setting": "HLA-DR13 (DRB1*1301); [2]", "result": "> 100000", "unit": "nM"}, {"measurement": "IC50", "setting": "HLA-DR3 (DRB1*0301)", "result": 62500, "unit": "nM"}, {"measurement": "IC50", "setting": "HLA-DR11 (DRB1*1101); [3]", "result": 2600, "unit": "nM"}, {"measurement": "IC50", "setting": "HLA-DR1 (DRB1*0101); competition with biotinylated tracer HA 306-318, read-out: IC50, binding to HLA-DR1", "result": 190, "unit": "nM"}, {"measurement": "IC50", "setting": "HLA-DRB5 (DRB5*0101)", "result": 11, "unit": "nM"}, {"measurement": "IC50", "setting": "HLA-DR15 (DRB1*1501); read-out: IC50, binding to HLA-DR15", "result": 525, "unit": "nM"}, {"measurement": "IC50", "setting": "HLA-DRB4 (DRB4*0101)", "result": 65000, "unit": "nM"}]}
{"smiles": "CC[C@H](C)[C@H](NC(=O)CNC(=O)[C@H](Cc1c[nH]cn1)NC(=O)[C@H](C)NC(=O)[C@H](CCCCN)NC(=O)[C@H](CO)NC(=O)[C@H](CCSC)NC(=O)[C@H](Cc1ccc(O)cc1)NC(=O)[C@H](C)NC(=O)CNC(=O)[C@H](Cc1ccccc1)NC(=O)CNC(=O)[C@H](CC(C)C)NC(=O)[C@@H](NC(=O)[C@H](C)NC(=O)[C@H](C)NC(=O)[C@@H](NC(=O)[C@H](CO)NC(=O)[C@@H]1CCCN1C(=O)[C@H](CC(N)=O)NC(=O)[C@H](CC(C)C)NC(=O)[C@@H](NC(=O)[C@H](CC(C)C)NC(=O)[C@@H](NC(=O)[C@H](CCCCN)NC(=O)[C@H](Cc1ccc(O)cc1)NC(=O)CNC(=O)[C@H](CCC(N)=O)NC(=O)[C@H](C)N)C(C)C)C(C)C)C(C)C)[C@@H](C)O)C(=O)N[C@@H](CC(=O)O)C(=O)O", "note": "[18N 1246-1275]", "values": [{"measurement": "IC50", "setting": "DR15", "result": 58, "unit": "nM"}, {"measurement": "IC50", "setting": "HLA-DR4 (DRB1*0401); read-out: binds with good affinity to DR4", "result": "< 1000", "unit": "nM"}, {"measurement": "IC50", "setting": "DRB3", "result": "> 30000", "unit": "nM"}, {"measurement": "IC50", "setting": "HLA-DR13 (DRB1*1301); read-out: binds with good affinity to DR13", "result": "< 1000", "unit": "nM"}, {"measurement": "IC50", "setting": "DR11", "result": 40, "unit": "nM"}, {"measurement": "IC50", "setting": "DR4", "result": 5, "unit": "nM"}, {"measurement": "IC50", "setting": "HLA-DR7 (DRB1*0701)", "result": "< 1000", "unit": "nM"}, {"measurement": "IC50", "setting": "DR7", "result": 15, "unit": "nM"}, {"measurement": "IC50", "setting": "HLA-DR11 (DRB1*1101); read-out: binds with good affinity to DR11", "result": "< 1000", "unit": "nM"}, {"measurement": "IC50", "setting": "HLA-DR1 (DRB1*0101); read-out: binds with good affinity to DR1", "result": "< 1000", "unit": "nM"}, {"measurement": "IC50", "setting": "DR1", "result": 1, "unit": "nM"}, {"measurement": "IC50", "setting": "DR13", "result": 900, "unit": "nM"}, {"measurement": "IC50", "setting": "DR3", "result": 2500, "unit": "nM"}, {"measurement": "IC50", "setting": "DRB4", "result": 2500, "unit": "nM"}, {"measurement": "IC50", "setting": "DP401", "result": "> 100000", "unit": "nM"}, {"measurement": "IC50", "setting": "DP402", "result": 11400, "unit": "nM"}, {"measurement": "IC50", "setting": "HLA-DR15 (DRB1*1501); DRB1*1501, read-out: binds with good affinity to DR15", "result": "< 1000", "unit": "nM"}]}
{"smiles": "CC[C@H](C)[C@H](NC(=O)[C@H](Cc1c[nH]cn1)NC(=O)[C@@H](NC(=O)[C@H](CC(C)C)NC(=O)CNC(=O)[C@@H](NC(=O)[C@H](Cc1ccccc1)NC(=O)[C@@H](NC(=O)CNC(=O)[C@@H](N)CCC(=O)O)C(C)C)[C@@H](C)O)[C@@H](C)O)C(=O)N[C@@H](CC(=O)O)C(=O)N[C@@H](C)C(=O)N[C@@H](Cc1c[nH]cn1)C(=O)N[C@@H](Cc1ccccc1)C(=O)N[C@@H](CC(C)C)C(=O)O", "note": "[29N 1559-1573]", "values": [{"measurement": "IC50", "setting": "HLA-DR4 (DRB1*0401); [1]", "result": 3000, "unit": "nM"}, {"measurement": "IC50", "setting": "HLA-DR13 (DRB1*1301); [2]", "result": "> 100000", "unit": "nM"}, {"measurement": "IC50", "setting": "HLA-DR3 (DRB1*0301)", "result": "> 100000", "unit": "nM"}, {"measurement": "IC50", "setting": "HLA-DR11 (DRB1*1101); [3]", "result": 7, "unit": "nM"}, {"measurement": "IC50", "setting": "HLA-DRB4 (DRB4*0101)", "result": "> 100000", "unit": "nM"}]}
